The results in this text go back to ChEMBL document CHEMBL5321235, “Design, synthesis, and SAR study of novel flavone 1,2,4-oxadiazole derivatives with anti-inflammatory activities for the treatment of Parkinson's disease” (Eur J Med Chem, 2023).

The source made the active and inactive calls. The rule behind the calls is not given here.

Data set [1] has as its system BV-2. Kind of data set: Cytotoxicity against mouse BV-2 cells assessed as reduction in cell viability at 10 uM pretreated for 18 hrs followed by LPS-stimulation and measured after 6 hrs by MTT assay. Format: toxicity, cell-based. The following applies: bv-2, 24 h. Background: Tetrazolium dyes change colour on reduction, which living cells bring about.
Data set [2] has as its system BV-2. Kind of data set: Inhibition of LPS-induced ROS production in mouse BV-2 cells at 5 uM pretreated for 18 hrs followed by LPS-stimulation and measured after 6 hrs by fluorescence microscopic analysis. The conditions noted are these: time 24.0 hrs. The data set is classed as functional, cell-based.
In data set [3] the test system is BV-2. In words: Inhibition of NF-kappaB activation in LPS-stimulated mouse BV-2 cells assessed as increase in IkappaBalpha expression at 5 to 10 uM pretreated for 18 hrs followed by LPS-stimulation and measured after 6 hrs by Western blot analysis. The data set is classed as cell-based. The conditions noted are these: dose 5-10 µM, time 24.0 hrs. (Immunoblotting shows a protein as a band on a membrane.)

In data set [4] the test system is BV-2. Kind of data set: Antiinflammatory activity in LPS-induced mouse BV-2 cells assessed as reduction in CD86 mRNA expression at 5 to 10 uM pretreated for 18 hrs followed by LPS-stimulation and measured after 6 hrs by qRT-PCR analysis. Format: functional, cell-based. The following applies: dose 5-10 µM, time 24.0 hrs.
Data set [5] deals with BV-2. In words: Antiinflammatory activity in LPS-induced mouse BV-2 cells assessed as increase in CD206 mRNA expression at 5 to 10 uM pretreated for 18 hrs followed by LPS-stimulation and measured after 6 hrs by qRT-PCR analysis. Format: functional, cell-based. The conditions noted are these: dose 5-10 µM, time 24.0 hrs.
Data set [6] deals with c-Jun N-terminal kinase (Mus musculus) (UniProt Q91Y86+Q9WTU6+Q61831). In words: Inhibition of LPS-induced JNK phosphorylation in mouse BV-2 cells at 5 to 10 uM pretreated for 12 hrs followed by LPS-stimulation and measured after 6 hrs by Western blot analysis. Format: cell-based. The following applies: dose 5-10 µM, time 18.0 hrs.
Sequence of c-Jun N-terminal kinase (Mus musculus) (Q61831 whole entry, looked up): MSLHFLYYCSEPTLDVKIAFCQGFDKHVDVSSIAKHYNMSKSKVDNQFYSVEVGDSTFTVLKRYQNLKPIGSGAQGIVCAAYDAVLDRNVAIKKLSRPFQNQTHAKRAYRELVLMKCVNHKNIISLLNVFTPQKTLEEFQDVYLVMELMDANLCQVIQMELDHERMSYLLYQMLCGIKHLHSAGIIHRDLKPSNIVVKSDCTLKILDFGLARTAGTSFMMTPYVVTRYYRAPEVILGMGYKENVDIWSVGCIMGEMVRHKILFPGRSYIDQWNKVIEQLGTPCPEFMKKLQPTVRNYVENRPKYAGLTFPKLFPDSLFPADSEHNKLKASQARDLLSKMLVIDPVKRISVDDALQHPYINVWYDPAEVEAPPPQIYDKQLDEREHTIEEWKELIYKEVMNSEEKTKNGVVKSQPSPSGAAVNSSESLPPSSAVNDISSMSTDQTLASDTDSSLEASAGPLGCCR
Sequence of c-Jun N-terminal kinase (Mus musculus) (Q91Y86 whole entry, looked up): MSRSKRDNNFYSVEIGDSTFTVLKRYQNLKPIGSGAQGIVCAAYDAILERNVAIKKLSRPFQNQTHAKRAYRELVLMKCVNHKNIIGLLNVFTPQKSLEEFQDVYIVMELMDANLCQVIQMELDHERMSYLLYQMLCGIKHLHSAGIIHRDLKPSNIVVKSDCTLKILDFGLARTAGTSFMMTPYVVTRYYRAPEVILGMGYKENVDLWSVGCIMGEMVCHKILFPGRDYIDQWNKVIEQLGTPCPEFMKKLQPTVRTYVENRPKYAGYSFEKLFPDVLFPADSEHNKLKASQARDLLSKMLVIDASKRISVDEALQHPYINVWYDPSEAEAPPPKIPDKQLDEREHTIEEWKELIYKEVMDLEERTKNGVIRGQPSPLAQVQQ
Sequence of c-Jun N-terminal kinase (Mus musculus) (Q9WTU6 whole entry, looked up): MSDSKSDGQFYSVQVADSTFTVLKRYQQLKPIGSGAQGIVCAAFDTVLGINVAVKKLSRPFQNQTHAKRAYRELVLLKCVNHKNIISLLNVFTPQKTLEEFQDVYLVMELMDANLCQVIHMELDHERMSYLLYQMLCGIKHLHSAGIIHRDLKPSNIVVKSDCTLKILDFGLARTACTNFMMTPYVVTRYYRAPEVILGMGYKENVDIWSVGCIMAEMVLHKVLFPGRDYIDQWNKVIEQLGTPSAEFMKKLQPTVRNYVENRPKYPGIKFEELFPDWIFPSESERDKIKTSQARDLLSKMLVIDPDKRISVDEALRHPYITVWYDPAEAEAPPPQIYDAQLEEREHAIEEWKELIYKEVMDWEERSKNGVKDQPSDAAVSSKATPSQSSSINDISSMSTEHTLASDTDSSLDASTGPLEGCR
Data set [7] concerns BV-2. In words: Induction of apoptosis in mouse LPS-induced BV-2 cells assessed as increase in cleaved Caspase-3 expression at 5 to 10 uM pretreated for 18 hrs followed by LPS-stimulation and measured after 6 hrs by Western blot analysis. Format: functional, cell-based. The conditions noted are these: dose 5-10 µM, time 24.0 hrs.
The subject of data set [8] is BV-2. Kind of data set: Induction of apoptosis in LPS-induced mouse BV-2 cells assessed as increase in BAX expression at 5 to 10 uM pretreated for 18 hrs followed by LPS-stimulation and measured after 6 hrs by immunofluorescence analysis. Format: functional, cell-based. The conditions noted are these: dose 5-10 µM, time 24.0 hrs.
For data set [9], the system named is BV-2. In words: Induction of apoptosis in LPS-induced mouse BV-2 cells assessed as increase in cleaved Caspase-3 expression at 5 to 10 uM pretreated for 18 hrs followed by LPS-stimulation and measured after 6 hrs by immunofluorescence analysis. The data set is classed as functional, cell-based. The conditions noted are these: dose 5-10 µM, time 24.0 hrs.
Data set [10] relates to BV-2. Kind of data set: Induction of apoptosis in LPS-induced mouse BV-2 cells assessed as increase in Caspase3 mRNA expression at 5 to 10 uM pretreated for 18 hrs followed by LPS-stimulation and measured after 6 hrs by qRT-PCR analysis. The following applies: dose 5-10 µM, time 24.0 hrs. The data set is classed as functional, cell-based.
The subject of a further data set is Microglia. In words: Neuroprotective activity against MPTP-induced apoptosis in mouse microglia assessed as increase in BAX expression in brain tissue at 15 mg/kg, ip administered with compound once daily for 2 weeks followed by MPTP addition on day 8 and measured after 2 weeks of compound addition by Western blot analysis. The data set is classed as functional, organism-based.

As for `Cc1cccc(-c2noc(-c3cccc4c(=O)c(C)c(-c5ccccc5)oc34)n2)c1`, the Activity result in the data set on BV-2 [1] is “Non-Toxic”. Further, the inhibition entry (in the data set with BV-2 [2]; with BV-2 [3]; in data set [6]) was “Active” in each case. The outcome with BV-2 [4], in the data set with BV-2 [5], with BV-2 [7], in the data set with BV-2 [8], in the data set on BV-2 [9] and with BV-2 [10] was Active. In addition, in the data set with Microglia, the outcome was Active.
